Data taken from patent publication US20220323402A1, “TREATMENT, AMELIORATION OR PREVENTION OF A VIRAL INFECTION” (priority 2019, published 2022).

Key:
[1] = test system: ZIKV (Puerto Rico strain, PRVABC59); test: Flow cytometry quantification of HepG2 cells positive for Flavivirus antigen after ZIKV infection; assay type: cell-based, Zika virus; conditions: HepG2, ZIKV PRVABC59 moi=1, 48 h, pre-treated; FIG. 7C
Protocol: FIGS. 7A-7K: AHR signaling boosts ZIKV replication in vitro. Flow cytometry quantification of HepG2 cells positive for Flavivirus antigen. HepG2 cells were pre-treated with different concentrations of I3S, CH223191 or DMSO (vehicle) and infected with ZIKV (moi=1) for 48 h. Plots shown are representative of one experiment. Bar graphs (FIG. 7C) represent the mean+s.e.m. of Flavivirus antigen positive cells from at least three independent experiments. P values were determined by a one-way ANOVA followed by Tukey's post-hoc test.
(§1) Stock solutions of I3S and CH223191 were prepared in DMSO, aliquoted and stored according to manufacturer's instructions. For CH223191, cells were pre-treated for 90 minutes and then used for further studies. For I3S, cells were pre-treated overnight.
Cells were fixed and permeabilized using Cytofix/Cytoperm (BD Biosciences). Secondary antibody for flow cytometry was phycoerythrin (PE) goat anti-mouse IgG (BD Biosciences) at a concentration of 1:200. Cells were analyzed on a Guava easyCyte flow cytometer and data was processed using FlowJo software.

[2] = test system: ZIKV; test: Infectious virus particles in supernatants of ZIKV-infected HepG2 cells, standard plaque assay in Vero cells; assay type: cell-based, Zika virus
Protocol: (§2) FIG. 8: Quantification of infectious virus particles in the supernatants of HepG2 cells pre-treated with CH2213191 or vehicle-treated using a standard plaque assay in Vero cells. Data represent the mean+s.e.m. from three independent experiments. P values were determined by a one-way ANOVA followed by Tukey's post-hoc test.
as §2, with “14:” for “8:”, “48 h p.i. after infection” for “pre-treated”, “ZIKV INEVH116141 (Argentina)” for “CH2213191 or vehicle-treated”
as §2, with “15:” for “8:”, “48 h p.i. after infection” for “pre-treated”, “ZIKV BeH815744 (Brazil)” for “CH2213191 or vehicle-treated”
as §2, with “16:” for “8:”, “48 h p.i. after infection” for “pre-treated”, “ZIKV MR 766 (Uganda)” for “CH2213191 or vehicle-treated”
as §1
C6/36 mosquito cells were infected at a multiplicity of infection of 1 with ZIKV Puerto Rico strain (PRVABC59, ATCC isolate gift from MIT laboratory); viral isolate from Argentina (INEVH116141) provided by Instituto Nacional de Enfermedades Virales Humanas, Pergamino, Argentina, ZIKV Brazil (BeH815744) gene bank accession number KU365780.1 gently provided by Prof. José Luiz Proença Modena and Daniele Durigon and the reference ZIKV strain from Uganda (MR766), respectively, for 1 h at 37° C. in serum-free DMEM. Quantification of viral titers was performed by a standard plaque assay in Vero cells.

[3] = test system: ZIKV; test: Infectious virus particles in supernatants of ZIKV-infected human NPC cells, plaque assay; assay type: cell-based, Zika virus; conditions: FIG. 13
Protocol: as §2, with “13:” for “8:”, “human NPC” for “HepG2”
HepG2 (ATCC, HB-8065), A549 (ATCC® CCL-185™), HeLa (ATCC, CCL-2) and Vero cells (African green monkey kidney) (ATCC, CCL-81) were grown in Dulbecco's Modified Eagle's medium (DMEM, GIBCO) supplemented with 10% fetal bovine serum, 100 IU/ml of penicillin and 100 ug/ml of streptomycin. HEK-293 cells (ATCC, CRL-1573) and SUM149 cells (Asterand Bioscience, Detroit, Mich.) were grown in DMEM/F12 (GIBCO) supplemented with 10% fetal bovine serum, 100 IU/ml of penicillin and 100 ug/ml of streptomycin. C6/36 mosquito cells from Aedes albopictus were used to generate viral stocks, and were cultured in L-15 medium (Leibovitz) (GIBCO) supplemented with 0.3% tryptose phosphate broth, 0.02% glutamine, 1% MEM non-essential amino acids solution and 10% fetal bovine serum. Human NPCs (Stem Cell Technologies, Catalog #70901) were grown using neural progenitor medium 2 (Stem Cell Technologies). […]

[4] = test system: Pml promoter; test: PML promoter Gaussia Luciferase reporter assay in HEK-293 cells; assay type: cell-based, human; conditions: HEK-293, 24 h post transfection; FIG. 28
Protocol: FIG. 28: Luciferase assay using a construct coding for the PML promoter cloned upstream of the reporter gene Gaussia Luciferase. HEK-293 cells were pre-treated with CH223191 and transfected with plasmids as indicated. 24 h post transfection, cells were harvested for quantification of Gaussia Luciferase and TK-Renilla activity. Data represent the mean+s.e.m. from three independent experiments. P values were determined by a one-way ANOVA followed by Tukey's post-hoc test.
PML shRNA plasmid (sc-36284-SH) was obtained from Santa Cruz Biotechnology. Transfection of HeLa cells was performed using Lipofectamine 2000 (Thermo Fisher) according to manufacturer's instructions. The plasmid encoding for the promoter region of PML, placed upstream of the Gaussia Luciferase (GLuc) reporter gene, was obtained from Genecopoeia. For the luciferase assay, HEK-293 cells were grown in 96 well-plates and transfected using Fugene-HD Transfection Reagent (Roche). Plasmids used for transfection in each condition are indicated in the experiment. 24 h later, pGudluc activity was analyzed using BioLux Gaussia Luciferase Assay Kit (New England Biolabs) and normalized to TK-Renilla luciferase activity, measured using the Renilla Luciferase Assay System (Promega).

Cc1ccccc1/N=N/c1ccc(NC(=O)c2ccnn2C)c(C)c1 [CH223191, 2-Methyl-2H-pyrazole-3-carboxylic Acid (2-methyl-4-o-tolylazo-phenyl)-amide]
reduction of ZIKV replication, HepG2 cells expressing viral antigen [1]: more than 50% | replication of ZIKV isolate from Argentina (INEVH116141) ([2]; HepG2, 48 h p.i., FIG. 14): suppressed | replication of ZIKV isolate from Brazil (BeH815744) ([2]; HepG2, 48 h p.i., FIG. 15): suppressed | replication of reference ZIKV strain from Uganda (MR 766) ([2]; HepG2, 48 h p.i., FIG. 16): suppressed | reduction of ZIKV replication, infective virus particles released in HepG2 cell culture supernatants ([2]; HepG2, ZIKV PRVABC59, FIG. 8): more than 50% | ZIKV replication in NPCs cultures [3]: decreased | Pml promoter transactivation by NF-κB in presence of co-expressed AHR [4]: rescued
